Laboratory results reported in patent US20100222437A1, “C[…]-PSYCHOTROPIC CANNABINOIDS FOR THE TREATMENT OF INFLAMMATORY DISEASES” (priority 2007, published 2010).
Read-outs that look alike come from different tables or passages of the source.

What was measured:
[1] = tested on: prostaglandin E2; conditions: cited from earlier work
[2] = tested on: TNF-α; experiment: TNF-α release by LPS-stimulated human monocytes (ELISA); format: cell-based; conditions: for release of TNF-α in LPS-stimulated monocytes: LPS 10 ng/ml, 24 h, rank order Denbinobin, CBD, CBG
Experimental: The inhibitory effect of CARMA-CBG extract on TNF-α release was studied in human peripheral mononuclear phagocytic cells. Monocytes were isolated as in Example 6 and were treated with LPS (10 ng/ml), in the absence or presence of increasing concentrations of CARMA-CBG extract dissolved in DMSO for 24 h. The production of the TNFα was determined by ELISA. […] LPS-mediated activation in the absence of CARMA-CBG was arbitrarily set as 100% of TNF-α release (FIG. 6).
The production of TNF-α was determined by ELISA, on the supernatant of LPS-treated monocytes, as indicated above, in the absence or presence of either CBG, or CBD or Denbinobin, as indicated.
Monocytes from healthy human donors, were treated with LPS (10 ng/ml), in the absence or presence of either CBG, or CBD or Canflavin A or Denbinobin, combined as indicated. The production of TNF-α was determined by ELISA as indicated above.

[3] = tested on: IL-1β; experiment: IL-1β release by LPS-stimulated human monocytes (ELISA); format: cell-based; conditions: for release of IL-1β (IL-1) in LPS-stimulated monocytes: LPS 10 ng/ml, 24 h, rank order Denbinobin, CBD, CBG
Experimental: The inhibitory effect of CARMA-CBG extract on IL-1β release was studied in human peripheral mononuclear phagocytic cells. Monocytes from healthy human donors were prepared following a standardised protocol (Ficoll gradient preparation) using a completely endotoxin-free cultivation. Using 50 ml tubes, 25 ml Ficoll were loaded with 25 ml blood of buffy coats from healthy blood donors. The gradient was established by centrifugation at 1,800 r.p.m., 20° C. for 40 min by using slow acceleration and brakes. Peripheral blood mononuclear cells in the interphase were carefully removed and re-suspended in 50 ml pre-warmed phosphate buffered saline followed by centrifugation for 10 min at 1,600 r.p.m. and 20° C. The supernatant was discarded and the pellet washed in 50 ml PBS and centrifuged as described above. The pellet was then re-suspended in 50 ml RPMI-1640 low endotoxin-medium supplemented with 10% human serum (PAA). After counting the amount of cells in a particle counter, cells were seeded in 24-well plates for ELISA and incubated at 37° C./5% CO2. The medium and the non-adherent cells (lymphocytes) were removed and fresh RPMI-1640 medium containing 1% human serum was added. The monocytes were treated with LPS (10 ng/ml), in the absence or presence of increasing concentrations of CARMA-CBG extract dissolved in DMSO for 24 h. The production of the IL-1β was determined by ELISA. […] LPS-mediated activation in the absence of CARMA-CBG was arbitrarily set as 100% of IL-1β release (FIG. 5).
Monocytes were isolated from healthy human donors as indicated above, and then treated with LPS (10 ng/ml), in the absence or presence of either CBG, or CBD or Denbinobin, as indicated, dissolved in DMSO. The production of IL-1 was determined by ELISA, and mean values from two independent experiments are shown. Full LPS-mediated activation was arbitrarily set as 100%.
Monocytes from healthy human donors, were treated with LPS (10 ng/ml), in the absence or presence of either CBG, or CBD or Canflavin A or Denbinobin, combined as indicated. The production of IL-1 was determined by ELISA, and mean values from two independent experiments are shown.

[4] = tested on: NF-kB; experiment: cells; format: cell-based; conditions: for % INHIBITON OF TNF-α-INDUCED NF-κB ACTIVATION: compound alone
[5] = tested on: intestinal inflammation; conditions: mice with induced IBD; cited from earlier work
[6] = target: T1, CB1 receptors in intestine submucose neurons (Rattus norvegicus, UniProt P20272); conditions: by activating CB1 receptors; cited from earlier work
T1 construct: host or cells: intestine submucose neurons (in vivo)
T1 sequence (P20272 whole entry): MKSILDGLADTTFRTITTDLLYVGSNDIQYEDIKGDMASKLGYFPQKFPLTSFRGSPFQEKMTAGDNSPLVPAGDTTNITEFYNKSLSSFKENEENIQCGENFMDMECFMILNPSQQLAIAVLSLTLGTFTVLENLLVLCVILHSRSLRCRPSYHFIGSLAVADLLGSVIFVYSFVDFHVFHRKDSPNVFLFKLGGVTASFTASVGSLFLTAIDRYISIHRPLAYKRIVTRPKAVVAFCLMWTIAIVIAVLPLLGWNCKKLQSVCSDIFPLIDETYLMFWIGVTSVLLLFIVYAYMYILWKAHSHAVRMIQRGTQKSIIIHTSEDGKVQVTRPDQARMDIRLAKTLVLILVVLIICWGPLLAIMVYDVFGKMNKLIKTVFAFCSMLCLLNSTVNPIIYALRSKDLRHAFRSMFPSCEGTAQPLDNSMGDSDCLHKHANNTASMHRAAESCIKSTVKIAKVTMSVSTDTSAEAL

[7] = tested on: HIV-1; conditions: cited from earlier work
[8] = tested on: colon cancer cell lines; conditions: cited from earlier work
[9] = tested on: leukaemia cell lines; conditions: cited from earlier work
[10] = tested on: HCT-116 (Colon cancer) cells; experiment: Calcein-AM cytotoxicity assay, HCT-116; conditions: HCT-116, 24 h, compound alone
Experimental: (§1) The cytotoxic effect of the Cannabigerol (CBG) and Cannabidiol (CBD) alone or in combination was investigated by the Calcein-AM assay. Briefly, AGS, SW480 and HTC116 cells were cultivated at a density of 1.0×10^4 cells/ml in 96-well plates, 200 μl cell suspension per well and cultured in DMEM containing 10% fetal calf serum. Cells were treated with or without CBD, CBG or a combination of both compounds for 24 h, after which the wells were washed and the cells incubated with Calcein-AM (1 μM) (Molecular Probes) for 30 min. Then the fluorescence of viable cells was detected in a microtitre plate reader (TECAN Genius Pro). The intensity of fluorescence was inversely proportional to cell death induced by the compounds.

[11] = tested on: SW480 (Colon cancer) cells; experiment: Calcein-AM cytotoxicity assay, SW480; conditions: SW480, 24 h, compound alone
Experimental: as §1

[12] = tested on: AGS (gastric cancer) cells; experiment: Calcein-AM cytotoxicity assay, AGS; conditions: 24 h, compound alone
Experimental: as §1

[13] = Homo sapiens, Monocyte, compound alone, 10 μM, read-out: % INHIBITION OF LPS-INDUCED TNF-α-PRODUCTION
[14] = Homo sapiens, Monocyte, compound alone, 20 μM, read-out: % INHIBITION OF LPS-INDUCED TNF-α-PRODUCTION
[15] = Homo sapiens, Monocyte, compound alone, 20 μM, read-out: % INHIBITION OF LPS-INDUCED IL-1 PRODUCTION
[16] = Homo sapiens, Jurkat, read-out: % INHIBITON OF TNF-α-INDUCED NF-κB ACTIVATION

| Structure (SMILES) | inhibition at 10 µM [2, 13] [%] | inhibition at 20 µM [2, 14] [%] | inhibition at 20 µM [3, 15] [%] | inhibition at 10 µM [4, 16] [%] | inhibition at 20 µM [4, 16] [%] | release of TNF-α in LPS-stimulated monocytes [2] | release of IL-1β (IL-1) in LPS-stimulated monocytes [3] | cytotoxicity (cell survival, Calcein-AM) [10] | cytotoxicity (cell survival, Calcein-AM) [11] | cytotoxicity (cell survival, Calcein-AM) [12] | further results |
| --- | --- | --- | --- | --- | --- | --- | --- | --- | --- | --- | --- |
| COc1cc(-c2cc(=O)c3c(O)c(C/C=C(\C)CCC=C(C)C)c(O)cc3o2)ccc1O [Canflavin A] | 0 | 0 | 0 | 16.6 | 38.8 | – | – | – | – | – | release of prostaglandin E2 [1]: can inhibit; inhibition at 10 µM ([3]; Homo sapiens, Monocyte, compound alone, 10 μM, read-out: % INHIBITION OF LPS-INDUCED IL-1 PRODUCTION): 0% |
| CCCCCc1cc(O)c2c(c1)OC(C)(C)[C@@H]1CCC(C)=C[C@@H]21 [THC, Δ-9-Tetrahydrocannabinoid] | – | – | – | – | – | – | – | – | – | – | intestinal inflammation [5]: reduces; gastrointestinal motility [6]: inhibits |
| COC1=CC(=O)c2ccc3cc(OC)cc(O)c3c2C1=O [Denbinobin] | – | – | – | – | – | significant concentration-dependent decrease | significant concentration-dependent decrease | – | – | – | HIV-1 replication in T cells [7]: can inhibit; inhibition at 1 µM ([2]; Homo sapiens, Monocyte, compound alone, 1 μM, read-out: % INHIBITION OF LPS-INDUCED TNF-α-PRODUCTION): 32%; inhibition at 2 µM ([2]; Homo sapiens, Monocyte, compound alone, 2 μM, read-out: % INHIBITION OF LPS-INDUCED TNF-α-PRODUCTION): 64%; inhibition at 1 µM ([3]; Homo sapiens, Monocyte, compound alone, 1 μM, read-out: % INHIBITION OF LPS-INDUCED IL-1 PRODUCTION): 37%; % INHIBITION OF LPS-INDUCED IL-1 PRODUCTION ([3]; compound alone, 2 μM00): 70.00%; anti-tumoral activity [8]: anti-tumoral activities; inhibition at 1 µM [4, 16]: 44.9%; inhibition at 2 µM [4, 16]: 93.1%; anti-tumoral activity [9]: anti-tumoral activities |
| CCCCCc1cc(O)c(C/C=C(\C)CCC=C(C)C)c(O)c1 [CBG, Cannabigerol] | 24.9 | 59.8 | 32.6 | 0 | 18.3 | significant concentration-dependent decrease | significant concentration-dependent decrease | induced cytotoxicity | induced cytotoxicity | induced cytotoxicity | inhibition at 10 µM ([3]; Homo sapiens, Monocyte, read-out: % INHIBITION OF LPS-INDUCED IL-1 PRODUCTION): 9.4% |
| C=C(C)[C@@H]1CCC(C)=C[C@H]1c1c(O)cc(CCCCC)cc1O [CBD, Cannabidiol] | – | – | – | – | – | significant concentration-dependent decrease | significant concentration-dependent decrease | induced cytotoxicity | induced cytotoxicity | induced cytotoxicity | % INHIBITION OF LPS-INDUCED TNF-α-PRODUCTION ([2]; compound alone, 10 μM): 33.30%; % INHIBITION OF LPS-INDUCED TNF-α-PRODUCTION ([2]; compound alone, 20 μM): 83.60%; % INHIBITION OF LPS-INDUCED IL-1 PRODUCTION ([3]; compound alone, 10 μM): 70.10%; % INHIBITION OF LPS-INDUCED IL-1 PRODUCTION ([3]; compound alone, 20 μM): 84.00%; % INHIBITON OF TNF-α-INDUCED NF-κB ACTIVATION ([4]; 10 μM): 14.43%; % INHIBITON OF TNF-α-INDUCED NF-κB ACTIVATION ([4]; 20 μM): 59.67% |
